Structures can show the parent of a compound that is named as a salt.
Experiments:
[1] = 60 mg once per week vs 20 mg per day; maintenance therapy after eight weeks of daily dosing; cited from earlier work
[2] = 120 mg dosed biweekly; cited from earlier work
[3] = interaction of fluoxetine with lactose (reducing sugar) over time; type: physicochemical; settings: room temperature and accelerated stability conditions (heat)
From the text: When used in this description, the term “sugar” refers to a sugar other than a reducing sugar. A reducing sugar is a carbohydrate that reduces Fehling's (or Benedict's) or Tollens' reagent. All monosaccharides are reducing sugars as are most disaccharides with the exception of sucrose. One common sugar used frequently as a binding or filling agent is lactose. […] As discussed below, sucrose is a preferred sugar.

CNCCC(Oc1ccc(C(F)(F)F)cc1)c1ccccc1 (stereo not drawn) [fluoxetine hydrochloride]
effectiveness during maintenance therapy [1]: as effective as 20 mg per day

CNCCC(Oc1ccc(C(F)(F)F)cc1)c1ccccc1 (stereo not drawn) [fluoxetine, N-methyl-3-(p-trifluoromethylphenoxy)-3-phenylpropylamine]
effectiveness for treating recurrent brief depression [2]: ineffective | interaction with lactose [3]: interacts with lactose both at room temperature and under accelerated stability conditions (heat)
